The nature of this experiment: Singlet oxygen test with DPBF (decay of DPBF absorption at 418 nm on irradiation). The following applies: solution of DPBF and porphyrin salt irradiated with halogen lamp, filter ~700 nm; b88: four 20 seconds intervals. Type of experiment: physicochemical. The text has this: Alternatively, the ability to generate singlet oxygen may be tested as follows. DPBF (1,3-diphenylisobenzofuran)^8 is used to determine the ability of N,N′-dimethylated N-confused porphyrin salts to generate singlet oxygen. DPBF reacts quickly with singlet oxygen and its absorption decay around 418 nm can be easily monitored. […] A solution containing DPBF and N,N′-dimethylated N-confused porphyrin salts (e.g. compound 9 in FIG. 3) was irradiated with a halogen lamp using a filter (˜700 nm), and monitored by UV-vis spectroscopy at 418 nm.
Pyrrole (Acros) was distilled from CaH2 before use. The silica gel was 230-400 mesh Silicycle). Activity III basic alumina was obtained by adding 6% water to activity I Brockman basic alumina, 60-325 mesh (Fisher). All other materials and solvents were used as received. The NMR spectra were recorded on a Bruker WH-400 or a Bruker AV-400 in the solvents indicated and were referenced to residual solvent peaks. Elemental analyses were performed on a Carlo Erba Elemental Analyzer1108. The UV-vis spectra were measured on a Cary 50. Mass spectra were determined on a KRATOS Concept IIHQ hybrid mass spectrometer. Irradiations were carried with a 250 W Osram HLX 64655 […] in an Oriel lamp housing (model 66184). The light output passed through a glass filter: P70-700-S-Corion. […]

Here are results for one substance from patent publication US20040019095A1, “N, N'-dimethylated N-confused porphyrins” (priority 2002, published 2004).

As to “N,N′-Dimethylated 2-aza-5,10,15,20-tetra(p-tolyl)-21-carba-porphyrin.HI [compound 9]”, the “decay of UV-vis signal at 418 nm (singlet oxygen generation)” value is given as “Substantial decay”.
